This is an account of results in ChEMBL document CHEMBL3853329, “1,2,4-Triazolyl 5-Azaspiro[2.4]heptanes: Lead Identification and Early Lead Optimization of a New Series of Potent and Selective Dopamine D3 Receptor Antagonists” (J Med Chem, 2016).

The nature of series [1]: in vitro. Conditions: human, liver microsomes. Background: Microsomes from liver hold many membrane-bound enzymes, among them those of drug oxidation.
A short description of series [2]: in vitro. Conditions: rat, liver microsomes.
Series [3] in a line: in vivo. The note with it: rat, po, 5 mg/kg.
Series [4] can be described thus: in vivo. Conditions: rat, brain.
A short description of series [5]: in vivo. The note with it: rat, po, 5 mg/kg. This is another data set of the same source.
The nature of series [6]: in vivo. The note with it: rat, iv, 1 mg/kg.
Series [7] can be described thus: in vivo. Conditions: rat.
Series [8] in a line: in vivo. The note with it: rat, whole blood, iv, 1 mg/kg.
The conditions of series [9]: human, caco-2.

On to `Cn1c(SCCCN2CC[C@]3(C[C@@H]3c3ccc(C(F)(F)F)cc3)C2)nnc1-c1ccc(CC(N)=O)cc1`, for which the intrinsic metabolic clearance (microsomal CLint) at 0.5 h, 0.5 µM in the series “in vitro [1]” is 58 µL/min/mg; in the series “in vitro [2]”, 22 µL/min/mg.
Regarding `Cc1nc(C(N)=O)ccc1-c1nnc(SCCCN2CC[C@]3(C[C@@H]3c3ccc(C(F)(F)F)cc3)C2)n1C`, the Fa in the series “in vivo [3]” stood at 54%. The compound further displayed a Kp in “in vivo [4]” of 1.5. Moreover, the microsomal CLint at 0.5 h, 0.5 µM was 299 µL/min/mg in the series “in vitro [1]” and 38 µL/min/mg in “in vitro [2]”. The bioavailability in “in vivo [5]” was 39%. In “in vivo [6]”, this compound displayed a volume of distribution (Vd) of 5.5 L/kg. Further, in the series “in vivo [7]”, the half-life was 4.3 h. The clearance in the series “in vivo [8]” stood at 21.1 mL/min/kg.
In the case of `Cn1c(SCCCN2CC[C@]3(C[C@@H]3c3ccc(C(F)(F)F)cc3)C2)nnc1C1CC2CCC(C1)O2` (single isomer, unassigned; enantiomer 1), the intrinsic metabolic clearance (microsomal CLint) at 0.5 h, 0.5 µM was determined as 50 µL/min/mg in “in vitro [1]” and 21.3 µL/min/mg in the series “in vitro [2]”. Besides, the Vd in the series “in vivo [6]” turned out to be 2.6 L/kg. In addition, the clearance in the series “in vivo [8]” was found to be 80 mL/min/kg.
In the case of `Cc1ncoc1-c1nnc(SCCCN2CC[C@]3(C[C@H]3c3ccc(C(F)(F)F)cc3)C2)n1C`, the microsomal CLint at 0.5 h, 0.5 µM in “in vitro [1]” is 22 µL/min/mg; in the series “in vitro [2]”, 161 µL/min/mg.
In the case of `Cn1c(SCCCN2CC[C@]3(C[C@@H]3c3ccc(C(F)(F)F)cc3)C2)nnc1-c1ccc(C(N)=O)nc1`, the Fa in “in vivo [3]” was determined as 40%. For the same compound, the intrinsic metabolic clearance (microsomal CLint) at 0.5 h, 0.5 µM was found to be 106 µL/min/mg in “in vitro [1]” and 29 µL/min/mg in the series “in vitro [2]”. In addition, in the series “in vivo [5]”, the bioavailability was found to be 26%. The same compound displayed a distribution volume (Vd) in the series “in vivo [6]” of 3.2 L/kg. The same compound showed a half-life in the series “in vivo [7]” of 2.2 h. This compound also yielded a clearance in the series “in vivo [8]” of 19.4 mL/min/kg.
With `Cn1c(SCCCN2CC[C@]3(C[C@@H]3c3ccc(C(F)(F)F)cc3F)C2)nnc1-c1cccnc1`, the microsomal CLint at 0.5 h, 0.5 µM in the series “in vitro [1]” was found to be 485 µL/min/mg; in “in vitro [2]”, 278 µL/min/mg.
`Cn1c(SCCCN2CC[C@]3(C[C@@H]3c3ccc(C(F)(F)F)cc3)C2)nnc1C1CCOCC1` returned a Fa in the series “in vivo [3]” of 57%. The compound also came in with a Kp in the series “in vivo [4]” of 0.3. Further, the microsomal CLint at 0.5 h, 0.5 µM came out at 34 µL/min/mg in “in vitro [1]” and 59 µL/min/mg in the series “in vitro [2]”. This compound also came in with a bioavailability in the series “in vivo [5]” of 11%. Besides, the permeability entry in series [9] is “Permeable”. This compound registered a Vd in “in vivo [6]” of 3.7 L/kg. Besides, in “in vivo [7]”, the half-life was 0.6 h. The clearance in “in vivo [8]” was 87.3 mL/min/kg.
In the case of `Cc1ncoc1-c1nnc(SCCCN2CC[C@@]3(C[C@H]3c3ccc(F)cc3)C2)n1C`, the microsomal CLint at 0.5 h, 0.5 µM in “in vitro [1]” was 37 µL/min/mg; in the series “in vitro [2]”, 73 µL/min/mg.
On the same counts, the results for `Cc1ncoc1-c1nnc(SCCCN2CC[C@@]3(C[C@H]3c3ccc(F)cc3C(F)(F)F)C2)n1C` (single isomer, unassigned; enantiomer 2) are 320 µL/min/mg and 151 µL/min/mg.
In “in vivo [3]”, `Cn1c(SCCCN2CC[C@]3(C[C@@H]3c3ccc(C(F)(F)F)cc3)C2)nnc1C1=CCC(=O)N=C1` (stereo in doubt) yielded a Fa of 1%. The results for the intrinsic metabolic clearance (microsomal CLint) at 0.5 h, 0.5 µM in the series “in vitro [1]” and in the series “in vitro [2]” were 28 µL/min/mg and 14 µL/min/mg, respectively. Besides, the bioavailability in “in vivo [5]” was found to be 2%. The permeability result in series [9] is on record as “Impermeable”. Further, in “in vivo [6]”, the distribution volume (Vd) came out at 9.1 L/kg. In “in vivo [7]”, this compound gave a half-life of 3.4 h. Further, the clearance in “in vivo [8]” stood at 48 mL/min/kg.
With `Cn1c(SCCCN2CC[C@]3(C[C@@H]3c3ccc(C(F)(F)F)cc3)C2)nnc1C1CCCCC1`, the figures for the intrinsic metabolic clearance (microsomal CLint) at 0.5 h, 0.5 µM in the series “in vitro [1]” and in “in vitro [2]” were 339 µL/min/mg and 201 µL/min/mg, respectively.
As for `Cc1ncoc1-c1nnc(SCCCN2CC[C@]3(C[C@@H]3c3ccc(C(F)(F)F)cc3)C2)n1C`, the intrinsic clearance (microsomal CLint) at 0.5 h, 0.5 µM in the series “in vitro [1]” was 86 µL/min/mg; in “in vitro [2]”, 83 µL/min/mg.
In the case of `Cc1ncoc1-c1nnc(SCCCN2CC[C@]3(C[C@H]3c3ccc(F)cc3C(F)(F)F)C2)n1C` (single isomer, unassigned; enantiomer 1), the microsomal CLint at 0.5 h, 0.5 µM in “in vitro [1]” came to 65 µL/min/mg; in “in vitro [2]”, 51 µL/min/mg.
On to `Cn1c(SCCCN2CC[C@]3(C[C@@H]3c3ccc(C(F)(F)F)cc3)C2)nnc1-c1ccc(C(N)=O)cc1`, for which the intrinsic metabolic clearance (microsomal CLint) at 0.5 h, 0.5 µM in the series “in vitro [1]” is 155 µL/min/mg; in “in vitro [2]”, 41 µL/min/mg.
As to `Cc1ccc(-c2nnc(SCCCN3CC[C@]4(C[C@@H]4c4ccc(C(F)(F)F)cc4)C3)n2C)c(C)n1`, the figures for the microsomal CLint at 0.5 h, 0.5 µM in “in vitro [1]” and in “in vitro [2]” were 299 µL/min/mg and 98 µL/min/mg, respectively.
For `Cn1c(SCCCN2CC[C@]3(C[C@@H]3c3ccc(C(F)(F)F)cc3)C2)nnc1C1CCNC(=O)C1` (single isomer, unassigned), the figures for the microsomal CLint at 0.5 h, 0.5 µM in “in vitro [1]” and in the series “in vitro [2]” were 25 µL/min/mg and below 11 µL/min/mg, respectively.
As for `Cc1ncoc1-c1nnc(SCCCN2CC[C@@]3(C[C@H]3c3ccc(F)cc3F)C2)n1C`, the microsomal CLint at 0.5 h, 0.5 µM in “in vitro [1]” came to 53 µL/min/mg; in the series “in vitro [2]”, 161 µL/min/mg.
Regarding `Cn1c(SCCCN2CC[C@]3(C[C@@H]3c3ccc(C(F)(F)F)cc3)C2)nnc1-c1cccc(C(N)=O)c1`, the intrinsic metabolic clearance (microsomal CLint) at 0.5 h, 0.5 µM in the series “in vitro [1]” worked out at 187 µL/min/mg; in “in vitro [2]”, 92 µL/min/mg.
With `Cn1c(SCCCN2CC[C@]3(C[C@@H]3c3ccc(C(F)(F)F)cc3)C2)nnc1-c1ccc(-c2ncco2)cc1`, the microsomal CLint at 0.5 h, 0.5 µM in the series “in vitro [1]” was determined as 352 µL/min/mg; in the series “in vitro [2]”, 276 µL/min/mg.
`Cn1c(SCCCN2CC[C@]3(C[C@@H]3c3ccc(C(F)(F)F)cc3)C2)nnc1-c1ccc(=O)n(C)c1`: the Fa in the series “in vivo [3]” was 17%. Also, the Kp in “in vivo [4]” was determined as 0.4. For the same compound, the microsomal CLint at 0.5 h, 0.5 µM in “in vitro [1]” amounted to 41 µL/min/mg; in “in vitro [2]” it was 16 µL/min/mg. The same compound had a bioavailability in the series “in vivo [5]” of 10%. Also, in [9], the permeability result is recorded as “Permeable”. Besides, the Vd in “in vivo [6]” came to 4 L/kg. The half-life in “in vivo [7]” is 1.9 h. For the same compound, the clearance in “in vivo [8]” worked out at 30.2 mL/min/kg.
On to `Cn1c(SCCCN2CC[C@]3(C[C@@H]3c3ccc(C(F)(F)F)cc3)C2)nnc1-c1cccc(-c2ncco2)c1`, for which the intrinsic metabolic clearance (microsomal CLint) at 0.5 h, 0.5 µM in “in vitro [1]” amounted to 447 µL/min/mg; in “in vitro [2]” it was 100 µL/min/mg.
In the case of `Cc1ncccc1-c1nnc(SCCCN2CC[C@]3(C[C@@H]3c3ccc(C(F)(F)F)cc3)C2)n1C`, the microsomal CLint at 0.5 h, 0.5 µM in the series “in vitro [1]” was 80 µL/min/mg; in “in vitro [2]”, 103 µL/min/mg.

The microsomal CLint is the capacity of the preparation to metabolise the compound, expressed as a volume cleared per time. A higher microsomal CLint goes with faster metabolism. As a reminder, the bioavailability is the share of a dose that reaches the circulation, judged against a reference dose that is usually intravenous. A high value points to much systemic uptake. Broadly, the Vd is the apparent volume that relates the amount in the body to the concentration in plasma or blood. The term half-life denotes how long it takes for the measured level to halve. By clearance is commonly meant the rate of elimination divided by the concentration. Low values mean inefficient removal, high ones efficient removal.
